# In US20250101062A1, “ANTIMICROBIAL PEPTIDES” (Board of Regents of the University of Nebraska, priority 2023, published 2025):
# Where no end group is shown, it is not given here.
# What was measured:
# Format in all cases: cell-based, Staphylococcus aureus
# MRSA USA300 [1] = experiment: Killing kinetics; conditions: 2×MIC
# Protocol: MRSA USA300 was grown to the exponential phase (OD600˜0.3) in MHB. The culture was diluted to OD600 0.001 (˜10^5 CFU/mL). One milliliter of bacterial suspension was then mixed with LL-37mini or daptomycin at 2×MIC and incubated at 37° C. After 15, 30, 60, 90, and 120 minutes of incubation, 50 μL was taken and serially diluted with 1×PBS. Then, 50 μL of the diluted suspension was plated on mannitol salt agar plates (NEOGEN, MI). The plates were incubated overnight at 37° C. for bacterial CFU determination the next day.
# For bacterial killing kinetics study, MRSA USA300 and P. aeruginosa E411-17 was grown to the exponential phase (OD600˜0.3) in MHB. The culture was diluted to OD600 0.001 (˜10^5 CFU/mL). One milliliter of bacterial suspension was then mixed with the peptide, colistin or daptomycin at 4×MIC and incubated at 37° C. After 15, 30, 60, 90, and 120 minutes incubation, 50 μL was taken and serially diluted with 1×PBS. Then, 50 μL of the diluted suspension was plated on Mannitol Salt Agar (MRSA USA300) or Cetrimide Agar (P. aeruginosa E411-17) plates (NEOGEN, MI). The plates were incubated overnight at 37° C. for bacterial CFU count the next day.
# MRSA USA300 [2] = experiment: Membrane depolarization (DiBAC4(3))
# Protocol: An overnight culture of MRSA USA300 was inoculated into TSB and grown to an exponential phase. Bacteria were washed with 1×PBS, resuspended in twice the volume of 1×PBS containing 25 mM glucose, and incubated at 37° C. for 15 minutes. Then, 500 nM (final concentration) of DiBAC4 (3) bis(1, 3-dibutylbarbituric acid) trimethine oxonol (ANASPEC, CA) was added, and the mixture was vortexed gently. Aliquots of 90 μL of the energized bacteria solution were loaded into the 96-well plates (Corning COSTAR, AZ) and placed in a FLUOstar® Omega microplate reader (BMG LABTECH, NC). Fluorescence was read for 20 minutes at excitation and emission wavelengths of 485 and 520 nm, respectively. Then, 10 μL of peptide solutions was added, and fluorescence readings were recorded for 40 minutes. Triton® X-100 (0.1%) was used as the positive control.
# Bacterial membrane depolarization was conducted (Marks, et al. (2013) PLoS One 8(5):e63158). […] Aliquots of 90 μL of the energized bacteria solution were loaded to the 96 well plates (Corning COSTAR, AZ) and placed in a FLUOstar® Omega microplate reader (BMG LABTECH, NC). Fluorescence was read for 20 minutes at excitation and emission wavelengths of 485 nm and 520 nm, respectively. Then, 10 μL of peptide solutions was added and fluorescence readings were recorded for 40 minutes. […]
# [3] = system: S. aureus USA300 LAC biofilms; experiment: Disruption of preformed biofilms in vitro (XTT)
# Protocol: Effects of Peptides on Established Biofilms in Vitro. Bacteria (S. aureus USA300 LAC and E. coli E423-17) were grown in rich TSB media overnight. A second inoculation was made the next day to reach an exponential phase (OD600˜0.4). Microtiter plates (96 wells, Corning Costar Cat no. 3595), after aliquoting with 180 μL of the culture to each well, were incubated at 37° C. for 24 hours to form biofilms in rich TSB. Media were aspirated post incubation, and the attached biofilms were washed with 1×PBS to remove the planktonic bacteria. […] Biofilms treated with water served as the positive control, while media without bacterial inoculation served as the negative control. Live cells in the biofilms were quantitated using XTT as described above. Absorbance was read at 450 nm (only media with XTT containing wells served as the blank) using a ChroMate™ microtiter plate reader. Percentage biofilm growth for the peptide was plotted by assuming 100% biofilm growth in bacterial control alone. The data were represented as mean±SD; plots were generated using GraphPad prism 7, where * indicates p<0.05, **p<0.01, and ***P<0.001, and ****p<0.0001 (one-way analyses of variance).
# LL-37 is known to inhibit bacterial biofilms (Overhage, et al. (2008) Infect. Immun., 76:4176-4182). However, it was unable to disrupt preformed MRSA biofilms in rich media (Mishra, et al. (2016) ACS Med. Chem. Lett., 7:117-121). Next, it was determined whether the diluted MHB medium could be useful to detect biofilm-disrupting activity for LL-37 against MRSA. An established procedure (Mishra, et al. (2016) ACS Med. Chem. Lett., 7:117-121; Duplantier, et al. (2013) Front. Immunol., 4:143) was used wherein biofilms were formed and washed as usual to remove planktonic cells. The biofilms were then treated with peptides in 12.5% MHB for 24 hours. Finally, live cells were quantified with XTT (ATCC). FIG. 2 compares the levels of live cells of MRSA in the preformed biofilms after 24 hour treatment. […] Of note is a similar pattern for both peptides in 12.5% MHB treated at various concentrations.
# Bacteria (S. aureus USA300 LAC or P. aeruginosa E411-17) were grown up in TSB media overnight. A second inoculation was made the next day to reach an exponential phase (OD600˜0.4). Microtiter plates (96 wells, Corning Costar Cat No. 3595), after aliquoting with 180 μL of the culture to each well, were incubated at 37° C. for 24 hours to form biofilms in rich TSB. Media were aspirated post incubation and the attached biofilms were washed with 1×PBS to remove the planktonic bacteria. […] Biofilms treated with water served as the positive control while media without bacterial inoculation served as the negative control. Live cells in the biofilms were quantitated using the XTT as described above. Absorbance was read at 450 nm (only media with XTT containing wells served as the blank) using a ChroMate® microtiter plate reader. Percentage biofilm growth (the plot legend is antibiofilm activity) for the peptides was plotted by assuming 100% biofilm growth in bacterial control alone. The data were represented as mean±SD, plots were generated using GraphPad prism 7, where * indicates p<0.05, ** p<0.01, and ***P<0.001, and ****p<0.0001 (one-way analyses of variance).
compound,measurement,setting,value
CCCCCCCCCC(=O)N[C@@H](Cc1c[nH]c2ccccc12)C(=O)N[C@H](CC(N)=O)C(=O)N[C@@H](CC(=O)O)C(=O)N[C@@H]1C(=O)NCC(=O)N[C@@H](CCCN)C(=O)N[C@@H](CC(=O)O)C(=O)N[C@H](C)C(=O)N[C@@H](CC(=O)O)C(=O)NCC(=O)N[C@H](CO)C(=O)N[C@@H]([C@H](C)CC(=O)O)C(=O)N[C@@H](CC(=O)c2ccccc2N)C(=O)O[C@@H]1C [Daptomycin],time to kill,MRSA USA300 [1],2 h
CC[C@H](C)[C@H](NC(=O)[C@H](CCCCN)NC(=O)[C@H](CCC(=O)O)NC(=O)[C@H](CCCCN)NC(=O)[C@H](CO)NC(=O)[C@H](CCCCN)NC(=O)[C@H](CCCNC(=N)N)NC(=O)[C@H](Cc1ccccc1)NC(=O)[C@H](Cc1ccccc1)NC(=O)[C@H](CC(=O)O)NC(=O)CNC(=O)[C@H](CC(C)C)NC(=O)[C@@H](N)CC(C)C)C(=O)NCC(=O)N[C@@H](CCCCN)C(=O)N[C@@H](CCC(=O)O)C(=O)N[C@@H](Cc1ccccc1)C(=O)N[C@@H](CCCCN)C(=O)N[C@@H](CCCNC(=N)N)C(=O)N[C@H](C(=O)N[C@H](C(=O)N[C@@H](CCC(N)=O)C(=O)N[C@@H](CCCNC(=N)N)C(=O)N[C@H](C(=O)N[C@@H](CCCCN)C(=O)N[C@@H](CC(=O)O)C(=O)N[C@@H](Cc1ccccc1)C(=O)N[C@@H](CC(C)C)C(=O)N[C@@H](CCCNC(=N)N)C(=O)N[C@@H](CC(N)=O)C(=O)N[C@@H](CC(C)C)C(=O)N[C@H](C(=O)N1CCC[C@H]1C(=O)N[C@@H](CCCNC(=N)N)C(=O)N[C@H](C(=O)N[C@@H](CCC(=O)O)C(=O)N[C@@H](CO)C(=O)O)[C@@H](C)O)C(C)C)[C@@H](C)CC)C(C)C)[C@@H](C)CC [LL-37],membrane depolarization,"MRSA USA300 [2]; Example 2, PBS with glucose",most powerful in membrane depolarization
same,peptide concentration showing biofilm disruption,"[3]; 24 h preformed biofilm, 12.5% MHB",32 µM
same,antibiofilm activity,"[3]; 24 h preformed biofilm, 100% MHB",essentially no antibiofilm activity
RRWWRWWR-NH2 [W543],membrane depolarization,"MRSA USA300 [2]; Example 1, highest concentration tested",did not show a clear effect
same,time at which CFU was not detected (killing),MRSA USA300 [1],120 min
same,effect on preformed biofilms,[3]; 48 or 72 hour preformed biofilms,Better disruptive effects than daptomycin
same,effect on preformed biofilms,"[3]; 24 hours preformed biofilms, 32 μM",essentially eliminated
